From patent US20160120881A1, “USE OF BUFODIENOLIDES IN DIAGNOSING AND TREATING ESSENTIAL HYPERTENSION” (priority 2014, published 2016)

Experiments:
severe PPH in rats = settings: cited from earlier work
[1] = two phase I human studies, dosages calculated to have beneficial effects on human PPH (Sidharta et al.); cited from earlier work
[2] = in vitro (Fedorova et al. 1997; Lopatin et al. 1999); cited from earlier work
angiotensin-infused rats [3] = settings: animals subjected to angiotensin excess (Danchuk et al. 2008); cited from earlier work
angiotensin-infused rats [4] = test: Systolic blood pressure in angiotensin-infused rats (ANG); assay type: in vivo, rat; settings: angiotensin infused animals given resibufogenin (ANGR) vs ANG; FIG. 1
Excerpt: (§1) FIG. 1. Mean systolic blood pressure (BP) values in sham (SHM) animals, angiotensin-infused rats (ANG), angiotensin infused animals given resibufogenin (ANGR), normal rats rendered hypertensive by the infusion of saline (volume expansion induced hypertensive rats)(NDS), NDS rats given resibufogenin (NDSR).
(§2) This compound differs from MBG only in the absence of a hydroxyl group in the beta-5 position of the molecule. […] Current therapy of volume expansion hypertension involves the administration of a diuretic. RBG can be considered in place of the diuretic as the therapy of choice of volume expansion-mediated hypertension or can be utilized in combination with the diuretic so that smaller dosages of each agent could be utilized. The latter strategy can result in fewer side effects from either drug.

[5] = tested on: volume expansion induced hypertensive rats; settings: experimental animals, volume expansion-mediated hypertension (Danchuk et al. 2008); cited from earlier work
[6] = tested on: preeclampsia in animal models; test: Preeclampsia animal models; assay type: in vivo
Excerpt: (§3) MBG is elevated in other syndromes such as preeclampsia and traumatic brain injury. It has been shown that the administration of the antagonist of MBG, resibufagenin (RBG) is therapeutically effective. […] RBG antagonizes MBG activity and may be an effective treatment for hypertension, ARDS, traumatic brain injury, and preeclampsia. Certain embodiments are directed to treating a hypertensive patient having elevated levels of MBG by administering an MBG antagonist or anti-MBG agent. In certain aspects the anti-MBG agent is resibufagenin (RBG).

[7] = tested on: volume expansion induced hypertensive rats; test: Systolic blood pressure in volume expansion induced hypertensive rats (saline infusion, NDS); assay type: in vivo, rat; settings: NDS rats given resibufogenin (NDSR) vs NDS; FIG. 1
Excerpt: as §1, §2

[8] = tested on: rodent brain contusion model; test: Rodent brain contusion model; assay type: in vivo; settings: given 1 hour after the insult
Excerpt: as §3

CCCNS(=O)(=O)Nc1ncnc(OCCOc2ncc(Br)cn2)c1-c1ccc(Br)cc1 [macitentan]
Pulmonary arterial hypertension (severe PPH in rats; severe PPH (Kunita-Takanezawa et al. 2014)): reversed severe pulmonary arterial hypertension | Adverse effects (severe PPH in rats; severe PPH): no adverse effects | Cardiac output (severe PPH in rats; severe PPH): preserved cardiac output | RV systolic pressure (severe PPH in rats; severe PPH): lowered RV systolic pressure | Right ventricular hypertrophy (severe PPH in rats; severe PPH): reversed right ventricular hypertrophy | Adverse effects [1]: no adverse effects of the drug were noted

C[C@]12CC[C@H](O)C[C@@]1(O)CC[C@@H]1[C@@H]2CC[C@]2(C)[C@@H](c3ccc(=O)oc3)C[C@H]3O[C@]132 [marinobufagenin (MBG), marinobufagenin]
Vasoconstrictor action [2]: acts in vitro as a vasoconstrictor

C[C@]12CC[C@H](O)C[C@H]1CC[C@@H]1[C@@H]2CC[C@]2(C)[C@@H](c3ccc(=O)oc3)C[C@H]3O[C@]132 [resibufogenin, epoxy-3β-hydroxy-5β-bufa-20,22-dienolide]
Elevated blood pressure (angiotensin-infused rats [3]): does not lower elevated blood pressure | Mean systolic blood pressure (BP) (angiotensin-infused rats [4]): only in the volume expanded animals | Blood pressure elevation [5]: resolves blood pressure elevations | Preeclampsia [6]: prevents preeclampsia | Mean systolic blood pressure (BP) [7]: reduced blood pressure only in the volume expanded animals | Tissue injury [8]: amelioration of tissue injury
